Experimental data: ChEMBL document CHEMBL1201862, “PubChem BioAssay data set” (2004)
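Dose response: 5 concentrations. Exposure: 48 h. Format: 96-well plates. Endpoint: linear interpolation; highest concentration if not reached. The concentration for 50% growth inhibition is given as GI50.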 Activity calls are given as the source filed them. Rule as the data show it: active = GI50 up to about 1.1 µM and inactive = higher.

Legend:
Experiment in all cases: NCI tumour cell line growth inhibition, 48 h
BT-549 = system: BT-549
MDA-N = system: MDA-N
PC-3 = system: PC-3
T47D = system: T47D
DMS-114 = system: DMS-114
DMS-273 = system: DMS-273
M19-MEL = system: M19-MEL
RXF 631 = system: RXF 631
XF498 = system: XF498

Measured: GI50

CC(=O)OCC1OC(n2c(-c3ccc(Cl)cc3)cc(-c3ccccc3)c(C#N)c2=S)C(OC(C)=O)C(OC(C)=O)C1OC(C)=O (configuration not stated)
inactive: BT-549 5.01 µM | MDA-N 11.3 µM | PC-3 11.3 µM | T47D 18.7 µM

CCOc1cc(/C=N\O)cc(/C=N/O)c1O
inactive: MDA-N 35.6 µM | PC-3 28.2 µM | T47D 21.9 µM

CC1(C)CCc2c(ccc(C(=O)/C=C/c3ccc(O)cc3)c2O)O1 [DORSMANNIN A]
inactive: BT-549 12.2 µM | PC-3 8.57 µM | T47D 1.56 µM

CN(C)c1n/c(=N/c2ccc(/N=c3\nc(N(C)C)ss3)cc2)ss1
inactive: DMS-114 16.7 µM | DMS-273 28.8 µM | M19-MEL 20.3 µM | RXF 631 22 µM

COc1cc(C(=O)C/C(CCC(=O)Nc2ccc(Cl)cc2Cl)=N/NC(=O)C(=O)NN)ccc1O
inactive: DMS-114 > 100 µM | M19-MEL > 100 µM | RXF 631 > 100 µM | XF498 > 100 µM

COc1ccccc1NC(=O)/C(=C/c1ccccc1)C(C)=O
inactive: DMS-114 40.3 µM | M19-MEL 65.2 µM | XF498 19.4 µM

COc1ccc(CCCC(=O)O)c(C)c1
inactive: BT-549 84.9 µM | MDA-N 62.4 µM | PC-3 37.9 µM | T47D 50.8 µM

Cc1ccc([N+](=O)[O-])cc1NC(=O)C(=O)C(C(=O)c1ccccc1F)C1OC(=O)c2ccccc21 (configuration not stated)
inactive: DMS-114 16.5 µM | DMS-273 36.3 µM | M19-MEL 33.4 µM | RXF 631 32.7 µM | XF498 81.5 µM

CCCCc1c2c(nc3c1CCc1cc4cc5c(nc4nc1-3)-c1nc3c(c(CCCC)c1CC5)CCC/C3=C\c1ccccc1)/C(=C/c1ccccc1)CCC2
inactive: DMS-114 > 100 µM | DMS-273 > 100 µM

CCOC(=O)CSc1c(C(=O)OCC)c(=O)n(-c2ccccc2)c(=S)n1-c1ccccc1
inactive: BT-549 8.49 µM | MDA-N > 100 µM | PC-3 4.61 µM | T47D > 100 µM

CC1(C)OP(=O)(O)CC1=O
inactive: MDA-N > 100 µM | PC-3 > 100 µM | T47D > 100 µM

Cc1cn(Cc2cnnn2CC2OC(n3cc(C)c(=O)[nH]c3=O)CC2O)c(=O)[nH]c1=O (configuration not stated)
inactive: BT-549 > 100 µM | MDA-N > 100 µM | PC-3 > 100 µM | T47D > 100 µM

COc1nc2[nH]ccc2c(=O)[nH]1
inactive: DMS-114 > 100 µM | RXF 631 > 100 µM

N#CC1(C#N)C2C=CC(C3CCC=C32)C1(C#N)C#N (configuration not stated)
inactive: BT-549 > 10 µM | MDA-N > 10 µM | PC-3 > 10 µM | T47D > 5.33 µM

CCOC(=O)COc1cccc2occc(=O)c12
inactive: DMS-114 > 100 µM | DMS-273 > 100 µM | M19-MEL > 100 µM | XF498 > 100 µM

Cc1nc2sccn2c1C(=O)NN
inactive: DMS-114 > 100 µM | DMS-273 > 100 µM | M19-MEL > 100 µM | RXF 631 > 100 µM | XF498 > 100 µM

CCCCC1=C(C(=O)N2CCOCC2)C2(OCCO2)C1=O
inactive: BT-549 23 µM | MDA-N 21.4 µM | PC-3 31.8 µM | T47D 33.9 µM

CC(C)O/C=C1\C(=O)C2(SCCS2)[C@H]2CCCC[C@@H]12
inactive: DMS-273 37.2 µM | M19-MEL 71 µM | RXF 631 52.8 µM

Cc1c2ccncc2cc2c1[nH]c1ccccc12
inactive: DMS-114 5.27 µM | DMS-273 1.19 µM | M19-MEL 3.81 µM
active: XF498 1.12 µM

COC1/C=C/C(C)C(C(C)C(OC)C(C)CCC(=O)C(C)C(C/C=C/N(C)C=O)OC)OC(=O)/C=C/C=C(\C)CC(OC)CC2=CC(=O)O[C@H](C2)C(C)C(OC)CC(OC)/C=C/C(C)C(OC)C1 (some centres not stated)
active: BT-549 0.0108 µM | PC-3 0.00989 µM

OCC1OC(n2ccc3cnccc32)CC1O (configuration not stated)
inactive: DMS-114 > 100 µM | DMS-273 > 100 µM | M19-MEL > 100 µM

N#CC1(CCCI)CCCC1
inactive: DMS-114 3.72 µM | DMS-273 4.55 µM | M19-MEL 5.36 µM | RXF 631 1.34 µM | XF498 18.6 µM

COc1ccc(NCC(=O)Nn2c(-c3ccccc3)nc3ccccc3c2=O)cc1
inactive: BT-549 23.3 µM | MDA-N 63.4 µM | PC-3 35.6 µM | T47D 29.9 µM

FC(F)(F)C(C1=NC(C(F)(F)F)(C(F)(F)F)N=C(N2CCOCC2)O1)C(F)(F)F
inactive: BT-549 17.9 µM | MDA-N 19.1 µM | PC-3 16.9 µM | T47D 23.4 µM

CCN(CC)CCCC(C)Nc1cc(-c2ccccc2)nc2cc(OC)ccc12 (configuration not stated)
inactive: DMS-114 6.68 µM | M19-MEL 10.1 µM

O=c1c(-c2ccccc2)c(SCCCN2CCCCC2)n(-c2ccccc2)c(=S)n1-c1ccccc1
inactive: BT-549 18 µM | PC-3 16.5 µM

O=C(CN1C(=O)c2ccccc2C1=O)OC1C=CCCC1 (configuration not stated)
inactive: DMS-273 > 100 µM | M19-MEL > 100 µM

Cc1cc(N(CCC#N)S(=O)(=O)c2ccccc2)ccc1/C=N\c1cccc(C(=O)O)c1
inactive: DMS-114 61 µM | M19-MEL > 100 µM | RXF 631 > 100 µM

C=CCNC(=S)N/N=C1\C(=O)Nc2ccc([N+](=O)[O-])cc21
inactive: BT-549 52.4 µM | MDA-N 83 µM | PC-3 > 100 µM | T47D 25.5 µM

N#Cc1c(-c2ccccc2)cn(C(=O)c2ccccc2)c1N
inactive: MDA-N > 100 µM | PC-3 > 100 µM

CCOC(=O)Nc1ccc(S(=O)(=O)NCCCl)cc1.CCOC(=O)Nc1ccc(S(=O)(=O)NCCCl)cc1.O=C(O)c1ccc(/N=N/Cl)cc1O
inactive: DMS-114 > 100 µM | DMS-273 > 100 µM | M19-MEL > 100 µM | RXF 631 > 100 µM

COc1ccc(C2COc3cc(O)c(O)cc3C2)cc1 (configuration not stated)
inactive: DMS-273 33.3 µM | M19-MEL 15.1 µM | XF498 7.28 µM

Oc1c(OCc2nnc(CCCCCCCCc3nnc(COc4ccc5ccccc5c4O)n3Nc3ccccc3)n2Nc2ccccc2)ccc2ccccc12
inactive: BT-549 8.73 µM | MDA-N 1.62 µM | PC-3 2.1 µM | T47D 6.43 µM

c1ccc(CSC(SCc2ccccc2)c2cccc3ccccc23)cc1
inactive: MDA-N > 10 µM | PC-3 > 10 µM | T47D 9.73 µM

O=C(c1cccs1)N(C(=S)OC12CC3CC(CC(C3)C1)C2)c1ccccc1
inactive: BT-549 35.3 µM | MDA-N 31.4 µM | PC-3 22.8 µM | T47D 76.7 µM

CCC(C)(C)n1c(C)nc2c1C(=O)c1ccccc1C2=O
inactive: DMS-273 11.8 µM | M19-MEL 15.7 µM | XF498 16.8 µM

O=C(O)C(CCc1ccccc1)N1C(=O)c2ccccc2C1=O (configuration not stated)
inactive: BT-549 > 100 µM | MDA-N > 100 µM | PC-3 > 100 µM | T47D > 100 µM

O=C(NC(COC(=O)C(Cc1ccccc1)NC(=O)c1ccccc1)Cc1ccccc1)c1ccccc1 (configuration not stated)
inactive: PC-3 > 50 µM

COc1ccc(NC(=O)CC/C(CC(=O)c2ccccc2Cl)=N\Nc2nnc(C)n2N)cc1
inactive: DMS-114 > 100 µM | DMS-273 > 100 µM | M19-MEL > 100 µM | RXF 631 > 100 µM

C=C1CC(C)(COc2ccc3c(C)cc(=O)oc3c2)OC1=O (configuration not stated)
inactive: BT-549 2.31 µM | PC-3 2.39 µM | T47D 1.74 µM
active: MDA-N 0.695 µM

NC1CCCCC1.O=P(O)(O)C(CSc1ccccc1)P(=O)(O)O
inactive: DMS-114 > 100 µM | DMS-273 > 100 µM | M19-MEL > 100 µM | XF498 > 100 µM

O=C(CC(=O)N1N=C(c2ccccc2)C(/N=N/c2ccc(S(=O)(=O)CCOS(=O)(=O)O)cc2)C1=O)Nc1ccc(Cl)cc1 (configuration not stated)
inactive: BT-549 > 100 µM | MDA-N > 100 µM | PC-3 > 100 µM | T47D > 100 µM

COC1OC(=O)[C@H]2O[N+]([O-])=C(C)[C@@H]12 (some centres not stated)
inactive: DMS-114 > 100 µM | M19-MEL > 100 µM | XF498 > 100 µM
